We go through 15 compounds from paper PMC11124822, “Discovery and Anticancer Screening of Novel Oxindole-Based Derivative Bearing Pyridyl Group as Potent and Selective Dual FLT3/CDK2 Kinase Inhibitor” (Pharmaceuticals, 2024).

One assay concerns HCT-116. As to the kind of experiment: NCI-60 antiproliferative screen (SRB). It is filed as cell-based, human. Particulars: Homo sapiens; 10 µM single dose, 48 h; HCT-116 (Colon); read-out: Growth inhibition (%).
In another assay the test system is SF-268. Kind of assay: NCI-60 antiproliferative screen (SRB). It is filed as cell-based, human. Particulars: Homo sapiens; 10 µM single dose, 48 h; SF-268 (CNS); read-out: Growth inhibition (%).

In general, inhibition refers to the drop in the measured response relative to a control, in per cent. In the case of `O=C1Nc2ccccc2C1=Cc1ccc(OCc2ccccc2)cc1` (mixture of isomers) [Compound 5a, (E/Z)-3-[4-(Benzyloxy)benzylidene] indolin-2-one], the inhibition at 10 µM in the assay on HCT-116 is 4.24%; with SF-268, -1.74%.
Consider `O=C1Nc2ccc(F)cc2C1=Cc1ccc(OCc2ccccc2)cc1` (mixture of isomers) [Compound 5b, (E/Z)-3-[4-(Benzyloxy)benzylidene]-5-fluoroindolin-2-one], for which the inhibition at 10 µM came to 4.15% in the assay on HCT-116 and 5.43% in the assay with SF-268.
With `O=C1Nc2ccc(Cl)cc2C1=Cc1ccc(OCc2ccccc2)cc1` (mixture of isomers) [Compound 5c, (E/Z)-3-[4-(Benzyloxy)benzylidene]-5-chloroindolin-2-one], the inhibition at 10 µM in the assay with HCT-116 worked out at 3.41%; in the assay with SF-268, 3.26%.
For `O=C1Nc2cc(Cl)ccc2C1=Cc1ccc(OCc2ccccc2)cc1` (mixture of isomers) [Compound 5d, (E/Z)-3-[4-(Benzyloxy)benzylidene]-6-chloroindolin-2-one], the inhibition at 10 µM was 2.33% in the assay on HCT-116 and 5.55% in the assay on SF-268.
`O=C1Nc2ccccc2C1=Cc1ccc(OCc2ccccn2)cc1` (mixture of isomers) [Compound 5e, (E/Z)-3-[4-(Pyridin-2-ylmethoxy]benzylidene) indolin-2-one]: the inhibition at 10 µM came to 41.1% in the assay on HCT-116 and 27.3% with SF-268.
In the same order, the values of `O=C1Nc2ccc(F)cc2C1=Cc1ccc(OCc2ccccn2)cc1` (mixture of isomers) [Compound 5f, (E/Z)-5-fluoro-3-[4-(pyridin-2-ylmethoxy)benzylidene]indolin-2-one] are 57.8% and 29.9%.
With `O=C1Nc2ccc(Cl)cc2C1=Cc1ccc(OCc2ccccn2)cc1` (mixture of isomers) [Compound 5g, (E/Z)-5-Chloro-3-[4-(pyridin-2-ylmethoxy)benzylidene] indolin-2-one], the inhibition at 10 µM is 71.5% in the assay with HCT-116 and 20.7% in the assay on SF-268.
Regarding `O=C1Nc2cc(Cl)ccc2C1=Cc1ccc(OCc2ccccn2)cc1` (mixture of isomers) [Compound 5h, (E/Z)-6-Chloro-3-[4-(pyridin-2-ylmethoxy)benzylidene]indolin-2-one], the inhibition at 10 µM with HCT-116 was 47.8%; in the assay with SF-268, 23.2%.
With `O=C1Nc2ccccc2C1=Cc1ccc(OCc2cccnc2)cc1` (mixture of isomers) [Compound 5i, (E/Z)-3-[4-(Pyridin-3-ylmethoxy)benzylidene]indolin-2-one], the inhibition at 10 µM in the assay on HCT-116 is 56.5%; in the assay on SF-268, -19.6%.
Turning to `O=C1Nc2ccc(F)cc2C1=Cc1ccc(OCc2cccnc2)cc1` (mixture of isomers) [Compound 5j, (E/Z)-5-Fluoro-3-[4-(pyridin-3-ylmethoxy)benzylidene]indolin-2-one], the figures for the inhibition at 10 µM in the assay with HCT-116 and in the assay with SF-268 were 84.7% and 11.1%, respectively.
Turning to `O=C1Nc2ccc(Cl)cc2C1=Cc1ccc(OCc2cccnc2)cc1` (mixture of isomers) [Compound 5k, (E/Z)-5-Chloro-3-[4-(pyridin-3-ylmethoxy)benzylidene] indolin-2-one], the figures for the inhibition at 10 µM in the assay on HCT-116 and in the assay with SF-268 were 34.6% and 5.1%, respectively.
For `O=C1Nc2ccccc2C1=Cc1ccc(OCc2ccncc2)cc1` (mixture of isomers) [Compound 5m, (E/Z)-3-[4-(Pyridin-4-ylmethoxy)benzylidene] indolin-2-one], the inhibition at 10 µM with HCT-116 was determined as 40.5%; in the assay on SF-268 it was 22.7%.
With `O=C1Nc2ccc(F)cc2C1=Cc1ccc(OCc2ccncc2)cc1` (mixture of isomers) [Compound 5n, (E/Z)-5-Fluoro-3-[4-(pyridin-4-ylmethoxy)benzylidene] indolin-2-one], the figures for the inhibition at 10 µM in the assay on HCT-116 and with SF-268 were 56.1% and 38.8%, respectively.
For the compound `O=C1Nc2ccc(Cl)cc2C1=Cc1ccc(OCc2ccncc2)cc1` (mixture of isomers) [Compound 5o, (E/Z)-5-Chloro-3-[4-(pyridin-4-ylmethoxy)benzylidene] indolin-2-one], the inhibition at 10 µM came to 60.5% with HCT-116 and 55.7% with SF-268.
The matching figures for `O=C1Nc2cc(Cl)ccc2C1=Cc1ccc(OCc2ccncc2)cc1` (mixture of isomers) [Compound 5p, (E/Z)-6-Chloro-3-[4-(pyridin-4-ylmethoxy)benzylidene]indolin-2-one]: 61.5% and 16.7%.
